# Results published in patent US8288380B2, “Thiophenediamine derivative having urea structure” (Santen Pharmaceutical Co., Ltd., priority 2008, dated 2012).
# Key:
# [1] = test system: male Japanese White rabbits; assay: Test for evaluation of intraocular pressure-lowering effect (intracameral administration); format: in vivo, rabbit; conditions: intracameral administration of 20 μL of 1 mM liquid, at 9 hours after administering, versus vehicle control group
# Text: Further, as a result of studying an effect of intraocular pressure reduction of the present compound through intracameral administration using male Japanese white rabbits in order to confirm an actual effect of intraocular pressure reduction of the present compound, it was confirmed that the present compound has an effect of intraocular pressure reduction. […]
# One drop of 0.4% oxybuprocaine hydrochloride eye drop was instilled into both eyes of each male Japanese White rabbit to achieve local anesthesia, and thereafter, the intraocular pressure was measured using an applanation tonometer. […] After the lapse of a certain period of time from the administration of the test compound or vehicle, one drop of 0.4% oxybuprocaine hydrochloride eye drop was instilled into the administered eye to achieve local anesthesia, and thereafter, the intraocular pressure was measured using an applanation tonometer.
# The intraocular pressure-lowering effect of each test compound was evaluated by calculating an intraocular pressure reduction rate. The intraocular pressure reduction rate (%) was calculated using the following equation. […]
# [2] = test system: HDAC (HeLa nuclear extract); assay: Test for evaluation of HDAC inhibitory activity (HDAC Fluorimetric Assay/Drug Discovery Kit, Biomol); format: biochemical; conditions: final concentration of the test compound 30 μM, values more than 100% shown as 100%
# Procedure: Using HDAC Fluorimetric Assay/Drug Discovery Kit (manufactured by Biomol), HDAC inhibitory activity of the present compounds was measured according to the protocol included with the kit. The kit contains Buffer, HeLa nuclear extract (includes HDAC), Substrate, Developer and Trichostatin A HDAC inhibitor).
# A test compound was dissolved in dimethyl sulfoxide (hereinafter referred to as “DMSO”), whereby a 2 mg/mL solution was prepared. Then, the resulting solution was diluted with Buffer containing 5% DMSO, whereby a 150 μM test compound solution was prepared.
# 1) To a 384-well culture plate, the test compound solution was added in an amount of 2 μL per well.
# 2) HeLa nuclear extract was diluted 30-fold with Buffer. The resulting solution was added in an amount of 3 μL per well, and then incubation was performed at 37° C. for 2 hours.
# 3) Substrate was diluted 500-fold with Buffer. The resulting solution was added in an amount of 5 μL per well (the final concentration of the test compound was 30 μM), and then incubation was performed at 37° C. for 10 minutes.
# 4) Developer was diluted 20-fold with Buffer and Trichostatin A (2 μM) was added to it. The resulting solution was added in an amount of 10 μL per well, and then incubation was performed at room temperature for 15 minutes.
# 5) The fluorescence intensity of each well was measured using multilabel counter ARVO (manufactured by Wallac) with excitation at 360 nm and emission at 460 nm.
# 6) A control data was obtained from the same experiment except that Buffer containing 5% DMSO was added instead of the test compound solution as the above-mentioned procedure from 1) to 5).
# 7) A blank data was obtained from the same experiment except that Buffer containing 5% DMSO was added instead of the test compound solution and that Buffer was added instead of Hela nuclear extract as the above-mentioned procedure from 1) to 5).
# Enzyme inhibitory rate (%) was calculated using the following equation. (Enzyme Inhibitory Rate(%))=100×[1−{(Fluorescence Intensity of Test Compound Solution)−(Florescence Intensity of Blank)}/{(Florescence Intensity of Control)−(Florescence Intensity of Blank)}] (Test Results)
# [3] = test system: human trabecular meshwork cell line (TM-1 cells); assay: Test for evaluation of effect of morphological change on trabecular meshwork cells (cell shape index, CSI); format: cell-based; conditions: final concentration 10 μM, 24 hours incubation, Control 0.694, lower CSI indicates greater morphological changes
# Text: Further, as a result of studying an effect morphological change of the present compound on trabecular meshwork cells, i.e., an effect of morphological change of the present compound on trabecular meshwork cells in an evaluation system using the cell shape index (hereinafter referred to as “CSI”) reported in The Journal of Clinical Investigation, 103, 1141-1150 (1999) as an index, it was found the present compound has an excellent effect of morphological change on trabecular meshwork cells.
# As a method for evaluating a cellular morphological change, an evaluation system using the cell shape index (hereinafter referred to as “CSI”) as an index has been reported in The Journal of Clinical Investigation, 103, 1141-1150 (1999). Therefore, according to the method described in the above document, an effect of morphological change of the present compounds on trabecular meshwork cells was evaluated.
# A human trabecular meshwork cell line (hereinafter referred to as “TM-1 cells”) reported in Investigative Ophthalmology & Visual Science, 43, 151-161 (2002) was used.
# Culture medium 1: A reagent was prepared by adding fetal bovine serum (10%), L-glutamine (2 mM), amphotericin B ([…]), and gentamicin (25 μg/mL) to Dulbecco's Modified Eagle Medium (hereinafter referred to as “D-MEM”).
# Culture medium 2: A reagent was prepared by adding fetal bovine serum (3%), L-glutamine (2 mM), amphotericin B (2.5 μg/mL), and gentamicin (25 μg/mL) were added to D-MEM.
# Cell staining liquid: A mixed liquid of Calcein-AM (16 μM) and Hoechst 33342 (40 μM) was prepared by diluting a Calcein-AM solution (cytoplasmic staining reagent, manufactured by Dojindo Laboratories) and a Hoechst 33342 solution (nuclear staining reagent, manufactured by Dojindo Laboratories) with D-MEM containing L-glutamine (2 mM), amphotericin B (2.5 μg/mL), and gentamicin (25 μg/mL).
# TM-1 cells subcultured at 37° C. in a 8% carbon dioxide gas atmosphere were treated with a trypsin/EDTA solution (0.05% trypsin and 0.53 mM tetrasodium ethylenediaminetetraacetate) at 24 hours before performing a drug treatment mentioned below and seeded on a 96-well culture plate. The culture medium 1 was used for the subculture of the cells. The culture medium 2 was used for the cell culture after seeding the cells on the plate.
# A test compound was dissolved in DMSO, whereby a 5 mM solution was prepared. Then, the resulting solution was diluted with the culture medium 2, whereby a 200 μM test compound solution was prepared.
# It has been reported that Y-27632 which is a Rho kinase inhibitor induces a morphological change in trabecular meshwork cells in Investigative Ophthalmology & Visual Science, 42, 137-144 (2001). Therefore, Y-27632 (produced according to the method described in WO 90/05723) was used as a positive control, and dissolved in DMSO in the same manner as the test compound, whereby a 5 mM solution was prepared, and then, the resulting solution was diluted with the culture medium 2, whereby a 200 μM positive control compound solution was prepared.
# 1) To a 96-well culture plate, a solution of TM-1 cells adjusted to a cell density of […] was added in an amount of 95 μL (1.5×10^4 cells) per well.
# 2) Incubation was performed at 37° C. in a 8% carbon dioxide gas atmosphere for 24 hours.
# 3) The test compound solution or positive control compound solution was added in an amount of 5 μL per well (the final concentration of the test compound or positive control compound was 10 μM). As a control, the culture medium 2 containing DMSO (4%) was added in an amount of 5 μL per well.
# 4) Incubation was performed at 37° C. in a 8% carbon dioxide gas atmosphere for 24 hours.
# 5) The cell staining liquid was added in an amount of 10 μL per well.
# 6) Incubation was performed at 37° C. in a 8% carbon dioxide gas atmosphere for 1 hour to stain the cells.
# 7) A 37% formaldehyde solution was added in an amount of 10 μL per well.
# 8) Incubation was performed at room temperature for 1 hour to fix the cells. […]
Structure (SMILES),Intraocular Pressure Reduction Rate (%) [1],Enzyme Inhibitory Rate (%) [2],CSI [3]
"CC(C)NC(=O)N(CCN(C)C)Cc1ccc(C(=O)Nc2cscc2N)nc1 [Compound No. 1-43, N-(4-Aminothiophen-3-yl)-5-[1-(2-dimethylaminoethyl)-3-isopropylureidomethyl]pyridine-2-carboxylic acid amide]",7%,100%,0.522
"CCCNC(=O)N(CCCCN1CCOCC1)Cc1ccc(C(=O)Nc2cscc2N)nc1 [Compound No. 1-82, N-(4-Aminothiophen-3-yl)-5-[1-[4-(morpholin-4-yl)butyl]-3-propylureidomethyl]pyridine-2-carboxylic acid amide]",25%,96%,0.507
